According to patent US20240287037A1, “CYCLOALKYL COMPOUNDS AND PHARMACEUTICAL COMPOSITIONS THAT MODULATE IKZF2” (Plexium, Inc., priority 2021, published 2024):

Tests used:
Format in all cases: cell-based
IKZF1 (Ikaros) = IKZF1 (Ikaros) (Homo sapiens (Human), UniProt Q13422+Q96SW2); test: IKZF1 reporter degradation assay (HEK 293T IKZF1-mNeonGreen reporter cell line); conditions: HEK 293T reporter cells, 24 hour incubation
Source text: (§1) Polycistronic plasmids were constructed for the mammalian expression of fluorescent reporter fusions of human transcription factors IKZF1 (Ikaros), IKZF2 (Helios), and IKZF3 (Aiolos). The respective protein sequences had their C-terminal end joined to a GGGGS linker repeated three times followed by mNeonGreen, P2A sequence, and mScarlet. The DNA sequences of the open reading frames are as follows:
(§2) IKZF1, IKZF2, and IKZF3 constructs were cloned into the UCOE Hygromycin expression vectors (Millipore Sigma). Reporter constructs were transfected using cationic lipid reagents into adherent HEK 293T cells and stable integrants were selected by treatment with 200 μg/mL hygromycin B. Clonal populations were obtained from the population of stable integrants either by limiting dilution or fluorescence activated cell sorting.
(§3) The clonal stable cell lines were maintained under constant 200 μg/mL hygromycin B selection while being passaged for use in the degradation assays. […] The fluorescence intensity of the IKZF1/2/3-mNeonGreen (FITC channel) and mScarlet (PE channel) reporters were routinely analyzed by flow cytometry to confirm consistent expression levels between experiments.
(§4) The IKZF1/IKZF2/IKZF3 degradation assays were carried out by harvesting the HEK 293T reporter cell lines and resuspending the cells in media formulated for reduced background fluorescence (FluoroBrite; Thermo Fisher). The respective cell lines were seeded at a density of 4000 cells/well into black-walled 384-well optical grade assay tissue culture plates. The cells were incubated overnight at 37° C. to allow for attachment to the assay plate. Dilutions of the compounds were prepared in DMSO from 10 mM compound stocks. The assay plates were treated with appropriate concentrations of the compounds by dispensing the DMSO dilutions in quadruplicate wells with an upper limit of 0.5% final DMSO.
(§5) After 24 hour incubation with the compounds, the assay plates were imaged on an ImageXpress Pico microscopy system (cells maintained at 37° C. during imaging) to obtain the fluorescent readouts. The assay plates were imaged in the FITC and Tetramethylrhodamine (TRITC) channels to obtain the mNeonGreen fluorescence intensity (reporter degradation data) and mScarlet fluorescence intensity (for cell segmentation). 293T-IKZF1 and 293T-IKZF3 reporter cell lines were imaged with exposures of 500 milliseconds (ms) for both FITC and TRITC channels, while the 293T-IKZF2 reporter cell line was imaged with exposures of 1000 ms for FITC and 1250 ms for TRITC. The resulting data was analyzed with Cell Reporter Xpress software using the 2-channel cell scoring analysis with a “percent positive” readout. The TRITC channel was selected for the “nuclei” segmentation with a threshold of 20 while the FITC channel was selected for the “Marker 1” segmentation and a threshold of 100 for the IKZF and IKZF3 reporter lines. […] The minimum segmentation width was set to 6 micrometers and the maximum segmentation width was set to 15 micrometers for all cell lines. The DC50 calculations were determined by regression to best fit four-parameter logistic curves using GraphPad Prism.

IKZF2 (Helios) = IKZF2 (Helios) (Homo sapiens (Human), UniProt Q96SW2+Q9UKS7); test: IKZF2 reporter degradation assay (HEK 293T IKZF2-mNeonGreen reporter cell line); conditions: 24 hour incubation; for inhibition at 1 µM: HEK-293T, 24 h
Chain of IKZF2 (Helios) (Q9UKS7 whole entry): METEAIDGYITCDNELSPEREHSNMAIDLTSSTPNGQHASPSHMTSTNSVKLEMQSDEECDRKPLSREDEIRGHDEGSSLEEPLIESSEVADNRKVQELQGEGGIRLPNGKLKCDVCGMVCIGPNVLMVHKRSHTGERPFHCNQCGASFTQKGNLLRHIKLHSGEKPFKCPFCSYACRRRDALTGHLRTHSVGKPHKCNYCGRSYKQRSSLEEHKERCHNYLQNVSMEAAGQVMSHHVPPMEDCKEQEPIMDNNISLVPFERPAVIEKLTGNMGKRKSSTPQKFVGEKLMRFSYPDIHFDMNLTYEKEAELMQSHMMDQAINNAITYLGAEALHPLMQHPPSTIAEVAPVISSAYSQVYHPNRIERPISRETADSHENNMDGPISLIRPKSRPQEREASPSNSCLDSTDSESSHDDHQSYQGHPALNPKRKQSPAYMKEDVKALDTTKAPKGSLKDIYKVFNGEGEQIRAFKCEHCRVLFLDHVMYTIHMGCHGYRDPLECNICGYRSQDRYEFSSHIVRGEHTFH
Chain of IKZF2 (Helios) (Q96SW2 whole entry): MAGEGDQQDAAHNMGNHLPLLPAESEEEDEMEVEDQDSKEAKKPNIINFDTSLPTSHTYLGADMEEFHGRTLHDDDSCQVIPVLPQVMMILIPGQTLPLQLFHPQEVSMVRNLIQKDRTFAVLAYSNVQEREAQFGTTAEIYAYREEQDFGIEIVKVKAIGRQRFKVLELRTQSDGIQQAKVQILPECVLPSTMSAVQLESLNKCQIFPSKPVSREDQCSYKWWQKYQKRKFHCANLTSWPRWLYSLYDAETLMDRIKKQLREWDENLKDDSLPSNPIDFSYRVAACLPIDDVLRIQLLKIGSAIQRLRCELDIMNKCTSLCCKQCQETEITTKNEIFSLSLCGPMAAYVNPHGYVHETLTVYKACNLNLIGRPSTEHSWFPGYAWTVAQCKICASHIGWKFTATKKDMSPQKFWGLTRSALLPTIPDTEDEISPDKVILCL
Chain of IKZF2 (Helios) (Q16531 whole entry partner): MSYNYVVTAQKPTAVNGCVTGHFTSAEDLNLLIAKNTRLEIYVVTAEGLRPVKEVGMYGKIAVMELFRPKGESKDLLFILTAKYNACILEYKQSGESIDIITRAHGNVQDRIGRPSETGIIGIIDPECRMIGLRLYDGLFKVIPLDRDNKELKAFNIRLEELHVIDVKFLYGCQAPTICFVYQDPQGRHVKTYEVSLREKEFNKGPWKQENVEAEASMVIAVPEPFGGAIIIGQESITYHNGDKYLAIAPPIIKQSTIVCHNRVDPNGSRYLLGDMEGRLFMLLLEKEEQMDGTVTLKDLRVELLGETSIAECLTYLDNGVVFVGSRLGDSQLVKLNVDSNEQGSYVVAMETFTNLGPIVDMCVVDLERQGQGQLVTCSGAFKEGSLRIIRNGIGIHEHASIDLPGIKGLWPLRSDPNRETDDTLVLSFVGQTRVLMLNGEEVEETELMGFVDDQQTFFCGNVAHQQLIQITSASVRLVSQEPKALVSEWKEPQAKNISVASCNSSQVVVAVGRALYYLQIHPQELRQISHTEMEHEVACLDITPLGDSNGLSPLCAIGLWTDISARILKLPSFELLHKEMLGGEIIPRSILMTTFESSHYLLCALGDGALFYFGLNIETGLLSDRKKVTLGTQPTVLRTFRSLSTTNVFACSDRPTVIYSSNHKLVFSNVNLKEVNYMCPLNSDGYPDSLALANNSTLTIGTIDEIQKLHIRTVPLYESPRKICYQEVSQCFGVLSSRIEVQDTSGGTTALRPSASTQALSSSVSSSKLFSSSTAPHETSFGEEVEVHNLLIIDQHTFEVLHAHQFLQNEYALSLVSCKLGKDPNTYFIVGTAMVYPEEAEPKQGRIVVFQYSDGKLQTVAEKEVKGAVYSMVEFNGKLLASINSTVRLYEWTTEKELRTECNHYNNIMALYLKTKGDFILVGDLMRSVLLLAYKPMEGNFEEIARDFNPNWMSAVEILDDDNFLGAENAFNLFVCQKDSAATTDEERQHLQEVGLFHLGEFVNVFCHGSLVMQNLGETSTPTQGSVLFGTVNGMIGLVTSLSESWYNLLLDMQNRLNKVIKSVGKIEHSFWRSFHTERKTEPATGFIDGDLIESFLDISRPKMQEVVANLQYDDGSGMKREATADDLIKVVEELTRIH
Source text: as §1, §2, §3, §4, §5

IKZF3 (Aiolos) = IKZF3 (Aiolos) (Homo sapiens (Human), UniProt Q96SW2+Q9UKT9); test: IKZF3 reporter degradation assay (HEK 293T IKZF3-mNeonGreen reporter cell line); conditions: HEK 293T reporter cells, 24 hour incubation
Chain of IKZF3 (Aiolos) (Q9UKT9 whole entry): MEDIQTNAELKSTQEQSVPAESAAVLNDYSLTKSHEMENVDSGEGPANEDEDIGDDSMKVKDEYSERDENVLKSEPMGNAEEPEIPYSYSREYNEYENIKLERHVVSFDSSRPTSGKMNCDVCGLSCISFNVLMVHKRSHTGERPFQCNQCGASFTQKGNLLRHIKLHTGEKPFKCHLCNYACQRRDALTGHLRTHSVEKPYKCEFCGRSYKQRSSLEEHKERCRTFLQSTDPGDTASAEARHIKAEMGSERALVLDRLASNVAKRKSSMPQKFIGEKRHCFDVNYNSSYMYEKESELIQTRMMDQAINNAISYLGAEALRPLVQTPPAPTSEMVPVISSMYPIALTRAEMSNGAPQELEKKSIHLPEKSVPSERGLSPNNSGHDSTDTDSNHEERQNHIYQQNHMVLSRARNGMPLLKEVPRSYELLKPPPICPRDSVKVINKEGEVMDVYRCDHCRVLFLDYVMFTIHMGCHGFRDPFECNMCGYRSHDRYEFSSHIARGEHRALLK
Chain of IKZF3 (Aiolos) (Q96SW2 whole entry): as the sequence (Q96SW2 whole entry) above
Chain of IKZF3 (Aiolos) (Q16531 whole entry partner): as the sequence (Q16531 whole entry partner) above
Source text: as §1, §2, §3, §4, §5

GSPT1 = GSPT1 (Homo sapiens (Human), UniProt P15170+Q96SW2); test: GSPT1 reporter degradation assay (HEK293 hGSPT1 HiBiT-tagged cells); conditions: 24 hour incubation
Chain of GSPT1 (P15170 whole entry): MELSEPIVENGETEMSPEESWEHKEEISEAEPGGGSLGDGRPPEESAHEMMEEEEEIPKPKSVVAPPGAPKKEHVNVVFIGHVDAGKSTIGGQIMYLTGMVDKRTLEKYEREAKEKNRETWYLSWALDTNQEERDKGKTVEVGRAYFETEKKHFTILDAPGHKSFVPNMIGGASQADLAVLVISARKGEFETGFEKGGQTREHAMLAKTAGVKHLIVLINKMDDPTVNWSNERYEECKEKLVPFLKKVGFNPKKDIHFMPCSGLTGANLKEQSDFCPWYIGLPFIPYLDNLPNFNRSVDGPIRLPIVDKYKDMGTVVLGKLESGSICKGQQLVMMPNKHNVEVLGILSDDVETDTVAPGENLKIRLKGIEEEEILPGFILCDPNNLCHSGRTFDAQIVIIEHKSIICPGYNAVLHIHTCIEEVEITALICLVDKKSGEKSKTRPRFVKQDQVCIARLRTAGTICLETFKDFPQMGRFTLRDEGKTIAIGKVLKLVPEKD
Chain of GSPT1 (Q96SW2 whole entry): as the sequence (Q96SW2 whole entry) above
Chain of GSPT1 (Q16531 whole entry partner): as the sequence (Q16531 whole entry partner) above
Experimental: HEK293_hGSPT1_HiBiT-tagged cells were generated using CRISPR-Cas12a technology. Briefly, ˜400,000 HEK293 cells were transiently co-transfected with precomplexed ribonuclear proteins (RNPs) consisting of […] of crRNA (IDT), […] of Cas12a protein (IDT), 3 μg of ssODN donor (IDT; AltRTM modifications), 78 pmol of electroporation enhancer (IDT), and 200 ng of pMaxGFP (Lonza). The transfection was performed via nucleofection (Lonza, 4D-Nucleofector X-unit) using solution P3 and program CM-130 in a (20 μL) cuvette. Five days post-nucleofection, cells were single-cell-sorted for GFP+ (transfected) cells by FACs in 96-well plates and clonally selected. Clones were screened and verified for the desired modification via targeted deep sequencing using gene-specific primers with partial Illumina adapter overhangs as previously described. In brief, clonal cell pellets were harvested, lysed, and used to generate gene-specific amplicons with partial Illumina adapters in PCR #1. Amplicons were indexed in PCR #2 and pooled with other targeted amplicons for other loci to create sequence diversity. Additionally, 10% PhiX sequencing control V3 (Illumina) was added to the pooled amplicon library prior to running the sample on a Miseq Sequencer System (Illumina) to generate paired 2×250 bp reads. Samples were demultiplexed using the index sequences, fastq files were generated, and NGS analysis was performed using CRIS.py.
The GSTP1 degradation assay was carried out by harvesting the HEK 293T reporter cell lines and resuspending the cells in media formulated for reduced background fluorescence (FluoroBrite; Thermo Fisher). The respective cell lines were seeded at a density of 8,000 cells/well into white-opaque 384-well optical grade assay tissue culture plates (Greiner 781080-20). The cells were incubated overnight at 37° C. to allow for attachment to the assay plate. Dilutions of the compounds were prepared in DMSO from 10 mM compound stocks. […] Plates were centrifuged at 320×g for 2 minutes at room temperature, and subsequently incubated at 37° C.
After 24 hour incubation with the compounds, the plates were allowed to cool to room temperature for 10 minutes. 30 μL of HiBiT lytic buffer+1:50 HiBiT substrate Solution were added to each well. Plates were centrifuged at 320×g for 2 minutes at room temperature and then incubated with shaking at room temperature for 10 minutes covered with foil. Plates were read on a CLARIOstar microplate reader (BMG LabTech), measuring at 450 nm (donor emission) and 610 nm or 630 nm (acceptor emission). The DC50 values were determined by regression to best fit four-parameter logistic curves using GraphPad Prism.

[1] = Table 3, HEK 293T reporter cells
[2] = second (untitled) table after Table 3

Chain of IKZF1 (Ikaros) (Q13422 whole entry, the tested form may be a part): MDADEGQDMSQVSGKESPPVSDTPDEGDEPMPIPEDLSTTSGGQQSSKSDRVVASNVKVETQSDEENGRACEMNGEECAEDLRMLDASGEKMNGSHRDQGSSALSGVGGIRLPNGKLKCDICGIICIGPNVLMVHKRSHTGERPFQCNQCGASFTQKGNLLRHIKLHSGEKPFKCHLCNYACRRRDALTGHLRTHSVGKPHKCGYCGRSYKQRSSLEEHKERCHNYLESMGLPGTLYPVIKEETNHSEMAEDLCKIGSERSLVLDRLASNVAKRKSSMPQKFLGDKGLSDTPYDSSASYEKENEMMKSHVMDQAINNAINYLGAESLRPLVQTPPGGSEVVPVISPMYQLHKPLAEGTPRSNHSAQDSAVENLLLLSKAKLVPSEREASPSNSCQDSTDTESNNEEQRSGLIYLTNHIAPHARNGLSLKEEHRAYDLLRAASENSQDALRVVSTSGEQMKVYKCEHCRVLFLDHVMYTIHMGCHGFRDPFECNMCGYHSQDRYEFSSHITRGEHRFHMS
Chain of IKZF1 (Ikaros) (Q96SW2 whole entry, the tested form may be a part): as the sequence (Q96SW2 whole entry) above
Chain of IKZF1 (Ikaros) (Q16531 whole entry partner, the tested form may be a part): as the sequence (Q16531 whole entry partner) above

Question: What does the source list for `CC(C)OC1CCC(C2CN([C@H]3CCCC[C@@H]3Oc3ccc4c(c3)CN(C3CCC(=O)NC3=O)C4=O)C2)CC1` (stereo partly drawn) [Compound 16, 3-(5-(((1S,2S)-2-(3-((cis)-4-isopropoxycyclohexyl)azetidin-1-yl)cyclohexyl)oxy)-1-oxoisoindolin-2-yl)piperidine-2,6-dione]?
Answer: DC50 (IKZF1 (Ikaros)): > 30 µM; DC50 (IKZF2 (Helios); HEK 293T reporter cells): 0.001 µM; inhibition at 1 µM (IKZF2 (Helios); [1]): 95.5%; inhibition at 1 µM (IKZF2 (Helios); [2]): 95.5%; DC50 (IKZF3 (Aiolos)): > 30 µM; DC50 (GSPT1): > 30 µM

Question: What does the source list for `O=C1CCC(N2Cc3cc(O[C@H]4CCCC[C@@H]4N4CC(C5CCC5)C4)ccc3C2=O)C(=O)N1` (stereo partly drawn) [Compound 5, 3-(5-(((1S,2S)-2-(3-cyclobutylazetidin-1-yl)cyclohexyl)oxy)-1-oxoisoindolin-2-yl)piperidine-2,6-dione]?
Answer: DC50 (IKZF1 (Ikaros)): > 30 µM; DC50 (IKZF2 (Helios); HEK 293T reporter cells): 0.004 µM; inhibition at 1 µM (IKZF2 (Helios); [1]): 85%; inhibition at 1 µM (IKZF2 (Helios); [2]): 85%; DC50 (IKZF3 (Aiolos)): > 30 µM; DC50 (GSPT1): > 30 µM

Question: What does the source list for `O=C1CCC(N2Cc3c(ccc(O[C@H]4CCCC[C@@H]4N4CC(C5CCC5)C4)c3F)C2=O)C(=O)N1` (stereo partly drawn) [Compound 25, 3-(5-(((1S,2S)-2-(3-cyclobutylazetidin-1-yl)cyclohexyl)oxy)-4-fluoro-1-oxoisoindolin-2-yl)piperidine-2,6-dione]?
Answer: DC50 (IKZF1 (Ikaros)): > 30 µM; DC50 (IKZF2 (Helios); HEK 293T reporter cells): 0.01 µM; inhibition at 1 µM (IKZF2 (Helios); [1]): 86.7%; inhibition at 1 µM (IKZF2 (Helios); [2]): 86.7%; DC50 (IKZF3 (Aiolos)): > 30 µM; DC50 (GSPT1): > 30 µM

Question: Which results are given for `O=C1CCC(N2Cc3cc(O[C@H]4CCCC[C@@H]4N4CC(C5CCC(F)(F)CC5)C4)ccc3C2=O)C(=O)N1` (stereo partly drawn) [Compound 2, 3-(5-(((1S,2S)-2-(3-(4,4-difluorocyclohexyl)azetidin-1-yl)cyclohexyl)oxy)-1-oxoisoindolin-2-yl)piperidine-2,6-dione]?
Answer: DC50 (IKZF1 (Ikaros)): > 30 µM; DC50 (IKZF2 (Helios); HEK 293T reporter cells): 0.003 µM; inhibition at 1 µM (IKZF2 (Helios); [1]): 74.6%; inhibition at 1 µM (IKZF2 (Helios); [2]): 74.6%; DC50 (IKZF3 (Aiolos)): > 30 µM; DC50 (GSPT1): > 30 µM
